This is an account of results in a melting point compilation (Tetko et al.; mined from patent text by program, amines drawn as free bases though some values may be those of a salt).

SMILES strings stand for the structures.

Regarding `COC(=O)CCCNC(=O)C[C@H]1O[C@H](c2cccc(OC)c2OC)c2cc(Cl)ccc2N(CC(C)(C)C)C1=O`, the melting point was 74 to 75 °C. Then `COc1cc2c(Cl)c(C#N)cnc2cc1NC(C)=O`, with 230 to 235 °C. The compound `Cc1c(C(=O)Nc2ccc(OCC(C)C)c(C#N)c2)cnn1C` came in with a melting point of 160 to 162 °C. Then `O=C(O)c1ccc([N+](=O)[O-])c(C(=O)O)c1`, with 257 to 258 °C; and `O=C(O)C=CC(=O)OC1CCN(C(=O)Cn2c(=O)sc3ccc(Cl)cc32)CC1`, with 197 to 198 °C; and `O=C(O)C(Cc1ccccc1)Nc1cc(-c2ccc(OCc3ccccc3)nc2)ncn1` (stereo not drawn), with 130 to 133 °C. Then `CCCC(=O)c1cnc2c(C)cccc2c1Nc1ccccc1OC`, with 135 to 137 °C. Then `CC1(C)C=Cc2c(ccc3c2OCC2(O)c4ccc(O)cc4OC32)O1` (single isomer, unassigned; (-)), with 95 to 101 °C; and `Cc1ccc(-c2nc(C)c(C)c(Cl)n2)cc1`, with 165 °C; and `CCn1c(C#N)ccc1-c1ccc2c(c1)C(C)(C)OC(=O)N2`, with 200 to 202 °C. `CN(C)c1ccc(-c2ccc(C(=O)Nc3cccc(CC(=O)O)c3)o2)cc1` returned a melting point of 187 to 190 °C. Then `O=C(NO)c1ccc(I)cc1O`, with 195 to 196 °C; and `CC(C)Oc1cc(-n2c(=O)c3c(n(C)c2=O)CCCC3)c(F)cc1Cl`, with 143 to 145 °C. `COc1ccc2c(c1)[C@](C)(NC(=O)c1cc3cccc4c3n1CC4)C(=O)N2c1ccc(F)cc1` yielded a melting point of 277 to 278 °C. The same measure for `CCCCCCCCCCCCCCCCOc1coc(CO)cc1=O`: 68 to 69.5 °C; for `C(=Cc1ccccc1)COC(CCc1ccccc1)Cn1ccnc1` (stereo not drawn): 116 to 119 °C; for `CCNC(=O)N1CCN(C2CCCc3ccc(OC)cc32)CC1` (stereo not drawn): 141 to 143 °C. The same measure for `NCc1ccc(N2C(=O)N(c3ccccc3Br)Cc3cnc(Nc4ccccc4)nc32)cc1`: 133 to 136 °C. `COc1ccc(Nc2nc(-c3cccc(C(=O)Nc4ccc(C(=O)O)cc4)c3)cn3ccnc23)cc1OC` came in with a melting point above 250 °C.

For the compound `O=C(Nc1ccc(Cl)c(C(F)(F)F)c1)c1ccccc1[N+](=O)[O-]`, the melting point was 165 to 169 °C. Then `O=C1C(=Cc2ccc(Cl)s2)CCc2cc(OCCn3ccnc3)ccc21`, with 143 to 144 °C. The compound `CC(C)CCC(O)C(CC1CCCCC1)NC(=O)C(Cc1c[nH]cn1)N(C)C(=O)C(Cc1ccccc1)OC(=O)N(C)CCC(=O)N1CCOCC1` (stereo not drawn) yielded a melting point of 80 to 87 °C. `CCCCCCCC(=O)c1ccc(CCO)cc1`: the melting point was determined as 47.4 °C. Then `CCOC1=N[C@@H](C(C)C)C(=O)N[C@]1(C)Cc1ccccc1`, with 125 °C; and `COC(=O)c1nc(-c2ccc(Cl)c(OC)c2F)nc(N)c1C#C[Si](C)(C)C`, with 126 to 128 °C. The same measure for `Nc1ccc(Sc2ccccc2)cc1Cl`: 59 to 60 °C. The compound `COc1cc2c(cc1OC)[C@@H]1CCCC[C@@H]1N=C2c1ccc(N(S(=O)(=O)c2ccc(C)cc2)S(=O)(=O)c2ccc(C)cc2)cc1` (racemic) yielded a melting point of 120 to 130 °C. As for `O=C(O)c1ccc(-c2cnc3c(c2)N(Cc2ccccc2OC(F)(F)F)CCN3)cc1`, the melting point came out at 250 °C. Then `COc1ccnc(N2CCN(C(=O)c3ccsc3)CC2)n1`, with 90 to 92 °C. Then `Cc1cccc(-c2nc(CCOc3ccc(/C=C/CO)cc3)c(C)o2)c1`, with 116 to 117 °C; and `CSc1ncc(Cc2ccncc2)c(=O)[nH]1`, with 179 to 182 °C; and `CC(C)(C)OC(=O)NC1CCN(CC(F)(F)F)CC1`, with 99.2 to 99.8 °C. The same measure for `COC(=O)COc1ccc(Cn2c(-c3ccc(OC4CCCC4)cc3)c(C)c3cc(OCc4ccccc4)ccc32)cc1`: 96 to 98 °C; for `N#CC1=C(c2cccs2)Nc2n[nH]cc2C1c1cccc(C#N)c1Br` (stereo not drawn): above 280 °C; for `COc1sc(-c2csc(C(N)=O)n2)c(Cl)c1C`: 201 to 203 °C. In turn, `CCCCCCCCCCCC1=NCCN1CCCCO` yielded a melting point of 58 to 60 °C. The same measure for `CCOC(=O)c1cccc(-c2ccc(F)c3cc(CBr)sc23)c1`: 139 to 140 °C. The same measure for `CCCc1ccccc1OCC(O)COc1cccc2oc(C(=O)O)cc(=O)c12` (stereo not drawn): 168 to 170 °C; for `O=Cc1ccc(OCc2ccccc2)cc1OCc1ccccc1`: 80 to 81 °C. Then `COc1ccc(C(CO)CNC(=O)C(N)=O)cc1OC1CCCC1` (stereo not drawn), with 176 °C; and `N#Cc1ccc(-c2cn(-c3ccc(OC(F)(F)F)cc3)cn2)cc1`, with 155 °C; and `CCCOc1n[nH]c(=O)[nH]1`, with 156 °C.

For the compound `CCOC(=O)N1C[C@H](O)C[C@H]1CCOc1ccc(Br)cc1CCc1ccccc1`, the melting point fell in the range of 63 to 66 °C. Then `CN(CCOc1cccc(Cl)c1CN)Cc1ccccc1`, with 85 °C; and `Cc1ccc(-n2c(-c3c4ccccc4cc4ccccc34)ccc2-c2c3ccccc3cc3ccccc23)cc1`, with 262 to 263 °C; and `COC(=O)C1=Cc2cc(-c3ccc(OCCOC(C)C)cc3)ccc2NCC1`, with 86 to 88 °C. As to `O=c1ccc(S(=O)(=O)n2ccnc2)n[nH]1`, the melting point lay within 55 to 60 °C. Then `CN(C[C@H](O)[C@@H](O)[C@H](O)[C@H](O)CO)C(=O)CCCO`, with 78 to 79 °C; and `Cc1cc(C(F)(C(F)(F)F)C(F)(F)F)ccc1N1C(=O)c2cccc(Cl)c2C1NC(C)(C)CS(C)(=O)=O` (stereo not drawn), with 154 to 156 °C; and `COc1ccc(Nc2cnc3c(NCc4ccccc4)nc(NCCO)nc3c2)cc1OC`, with 149 to 150 °C. The same measure for `OCCOc1cc(O)ccc1-c1nc2cnccc2[nH]1`: 250 °C; for `O=CC1=Cc2cc(OCCCc3ccccc3)ccc2OC1`: 71 to 73 °C; for `N#CCC(=O)C(F)(F)C(F)(F)F`: 47 to 54 °C.

Regarding `CCOC(=O)Cn1ncc(-c2ccccn2)c1-c1ccccc1`, the melting point lay within 98 to 100 °C.

Turning to `CC1=NN(c2c(Cl)cc(Cl)cc2Cl)C(=O)C1`, the melting point was 178 to 180 °C. Then `Cc1cc(CN(C)c2cc(-c3ccc(Cl)cc3)nn2C)cc(C)c1OC(C)(C)C(=O)O`, with 158 °C. `CNc1nc(NS(=O)(=O)c2ccc(N)cc2)cc(N(C)C)n1`: the melting point was above 300 °C.

The compound `CCN(CC)c1cccc(N(CC)CC)c1C(=O)O` returned a melting point of 112 to 114 °C. Compound `CCCCCCCCCCCCNC(=O)OCc1ccc(OC(C)=O)c(OC)c1` registered a melting point of 54 to 56 °C. `O=C(Nc1ccccc1-c1nnn[nH]1)C(=O)N1CCC(Cc2ccc(F)cc2)CC1`: the melting point fell in the range of 107 to 109 °C.

`CC(C)(C)c1ccc(-c2cccc(-c3ccccc3)c2CC(=O)NC(=N)N)cc1` gave a melting point of 171 to 174 °C. Then `O=C(c1cc2cc([N+](=O)[O-])ccc2o1)C12CC3CC(CC(C3)C1)C2`, with 151 to 153 °C; and `CC1(C)CCC(C)(C)c2cc(-c3cc(-c4ccc(C(=O)O)cc4O)ccc3-c3ccccc3)ccc21`, with 183 to 185 °C.
